Assays:
[1] = woman given daily FSH injections at a given dosage; cited from earlier work
[2] = test system: follicular growth to ovulation; settings: Schoemaker study; cited from earlier work
[3] = test system: patient with diminished ovarian reserve; assay: Case of a low-responder patient: FSH needed to ovulate, with and without estradiol patch and low dose hCG; assay type: in vivo, human
Procedure: To ovulate a single follicle, they required a follicle stimulating hormone level of 18 IU/L, with a typical threshold value of FSH required for a regularly cycling young and healthy woman in the range of 5 IU/L or less. This patient was also characterized by their physician as a low responder to FSH, which refers to a patient who requires high follicle stimulating hormone doses to ovulate even a single follicle. […] In the first two menstrual cycles, the patient was treated using the method as described supra, with a high dose follicle stimulating hormone (FSH) at a total dosage of FSH at about 5,000 IU across the cycle with very high threshold dosage and threshold peak follicle stimulating hormone levels like that of an AMA person with high FSH, in the first cycle and second cycle to induce follicle growth to the ovulatory stage. In the third consecutive treatment cycle, the above-described regimen was supplemented with an estradiol patch delivering 17-beta estradiol for several days until the commencement of stimulation with FSH medication. The patch was then continued daily during the period of stimulated until the evening before expected hCG injection, when it was removed. This was designed to coincide to approximate the timing of the estradiol surge. […]

follicle stimulating hormone
time for steady-state levels of FSH to be established [1]: 4 days
threshold level of serum FSH for follicular growth to ovulation [2]: 7.8 IU
follicle stimulating hormone level required to ovulate a single follicle ([3]; COHS cycle, severe GnRHa suppression): 18 IU/L
total dosage of FSH across the cycle to induce follicle growth to the ovulatory stage ([3]; first and second cycles, without estradiol and hCG supplementation): about 5,000 IU
